{"source": "paper PMC8881610", "about": "(Nature Communications, 2022)", "assay_in_all_cases": "Whole-cell binding assay, competition with 125I-GIP1-42", "parameters_in_all_cases": "acylated tirzepatide to the full-length or modified; Flag; expressed in transfected cells", "key": {"GIPR [1]": {"target": "T1, GIPR (Homo sapiens, UniProt P48546, W209A)", "T1 sequence (P48546 22-466 W209A)": "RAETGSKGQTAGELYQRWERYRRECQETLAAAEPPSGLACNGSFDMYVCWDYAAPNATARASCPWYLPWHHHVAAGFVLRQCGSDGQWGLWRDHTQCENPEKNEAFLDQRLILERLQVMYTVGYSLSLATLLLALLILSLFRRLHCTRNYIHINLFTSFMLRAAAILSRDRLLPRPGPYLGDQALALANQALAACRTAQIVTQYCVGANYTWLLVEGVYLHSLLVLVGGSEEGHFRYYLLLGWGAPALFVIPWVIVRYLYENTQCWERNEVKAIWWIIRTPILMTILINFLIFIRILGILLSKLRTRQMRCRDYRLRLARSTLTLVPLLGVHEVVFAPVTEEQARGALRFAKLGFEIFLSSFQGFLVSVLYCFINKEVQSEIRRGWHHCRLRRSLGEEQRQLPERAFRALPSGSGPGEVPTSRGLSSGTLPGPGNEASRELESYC", "conditions": "GIPR W209A, CHO-K1", "in_short": "(§1)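 Transiently transfected CHO-K1 cells expressing WT or mutant GIPR were washed in F-12 with 0.1% BSA or 0.1% casein and 33 mM HEPES, then incubated 2 h at 37 °C. After ice-cold PBS washes, cells were lysed and bound radioactivity counted (CPM).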"}, "GIPR [2]": {"target": "T2, GIPR (Homo sapiens, UniProt P48546, D191A/Q138A/R196A)", "T2 sequence (P48546 22-466 Q138A/D191A/R196A)": "T1 sequence (P48546 22-466 W209A) with Q117A, D170A, R175A, A188W", "conditions": "GIPR Q138A/D191A/R196A, CHO-K1", "in_short": "as §1"}, "GIPR [3]": {"target": "T3, GIPR (Homo sapiens, UniProt P48546, E135A)", "T3 sequence (P48546 22-466 E135A)": "T1 sequence (P48546 22-466 W209A) with E114A, A188W", "conditions": "GIPR E135A, CHO-K1", "in_short": "as §1"}, "[4]": {"conditions": "read-out: binding pIC50 (converted)"}}, "note": "Positions count from the first letter of the chain named."}
{"smiles": "CCCCCCCCCCCCCCCC(=O)N[C@@H](CCC(=O)NCCCC[C@H](NC(=O)[C@H](CC(=O)O)NC(=O)[C@H](CO)NC(=O)[C@@H](NC(=O)[C@H](Cc1ccccc1)NC(=O)[C@@H](NC(=O)CNC(=O)[C@H](CCC(N)=O)NC(=O)C(C)(C)NC(=O)[C@@H](N)Cc1c[nH]cn1)[C@@H](C)O)[C@@H](C)O)C(=O)N[C@@H](CO)C(=O)N[C@@H](CCCCN)C(=O)N[C@@H](Cc1ccc(O)cc1)C(=O)N[C@@H](CC(C)C)C(=O)N[C@@H](CC(=O)O)C(=O)N[C@@H](CCC(=O)O)C(=O)N[C@@H](CCCNC(=N)N)C(=O)N[C@@H](C)C(=O)N[C@@H](C)C(=O)N[C@@H](CCC(N)=O)C(=O)N[C@@H](CC(=O)O)C(=O)N[C@@H](Cc1ccccc1)C(=O)N[C@H](C(=O)N[C@@H](CCC(N)=O)C(=O)N[C@@H](Cc1c[nH]c2ccccc12)C(=O)N[C@@H](CC(C)C)C(=O)N[C@@H](CC(C)C)C(=O)N[C@@H](CC(=O)O)C(=O)NCC(=O)NCC(=O)N1CCC[C@H]1C(=O)N[C@@H](CO)C(=O)N[C@@H](CO)C(=O)NCC(=O)N[C@@H](C)C(=O)N1CCC[C@H]1C(=O)N1CCC[C@H]1C(=O)N1CCC[C@H]1C(=O)N[C@@H](CO)C(N)=O)C(C)C)C(=O)O", "note": "[Peptide 20]", "values": [{"measurement": "binding Span", "setting": "GIPR [1]", "value": "96.83 ± 6.13", "unit": "% WT"}, {"measurement": "IC50", "setting": "GIPR [1]; [4]", "value": 20, "unit": "nM"}, {"measurement": "binding Span", "setting": "GIPR [2]", "value": "1.03 ± 0.94", "unit": "% WT"}, {"measurement": "IC50", "setting": "GIPR [2]; [4]", "value": 2.4, "unit": "nM"}, {"measurement": "binding Span", "setting": "GIPR [3]", "value": "64.00 ± 2.46", "unit": "% WT"}, {"measurement": "IC50", "setting": "GIPR [3]; [4]", "value": 5.62, "unit": "nM"}]}
